Assay results from article PMC10703426, “New characterization of dihydroergotamine receptor pharmacology in the context of migraine: utilization of a β-arrestin recruitment assay” (Frontiers in Neurology, 2023).
Counter-ions that a name gives are not always drawn.

Columns and labels:
5-HT1A = biological target: T1, 5-HT1A (Homo sapiens, UniProt P08908); experiment: gpcrMAX PathHunter β-arrestin recruitment, agonist mode; format: cell-based; conditions: 10 μM; >30% activity = agonist
T1 construct: ProLink enzyme-donor fragment of β-galactosidase (own knowledge of the PathHunter design)
Procedure: (§1) PathHunter cell lines were expanded from freezer stocks according to standard procedures and cells were seeded in a total volume of 20 μL into white-walled, 384-well microplates in duplicate and incubated at 37°C prior to testing. […] Intermediate dilution (1% vehicle concentration) of sample stocks was performed to generate a 5× sample in assay buffer, of which 5 μL was added to the cells and incubated for 90 or 180 min at 37°C or room temperature, depending on the specific receptor, as established by manufacturer optimization protocols (see Supplementary Table 1). For antagonist activity, cells were preincubated with an antagonist for 30 min, followed by an agonist challenge at 80% of the maximal effective concentration (EC80). Intermediate dilution of sample stocks was performed to generate 5× sample in assay buffer, of which 5 μL was added to cells and incubated at 37°C or room temperature for 30 min. This was followed by an addition of 5 μL of 6× EC80 agonist in assay buffer to the cells, which were incubated at 37°C or room temperature for 90 or 180 min. Assay signal for agonist and antagonist modes was generated through a single addition of 12.5 or 15 μL (50% v/v) of PathHunter Detection reagent cocktail, followed by a 1-h incubation at room temperature. Further experimental details can be found in the Supplementary File. Microplates were read with a PerkinElmer EnVision (Shelton, CT) instrument for chemiluminescent signal detection.
(§2) Measurement of agonist and antagonist activity in the assay was calculated as percent activity of relative luminescence units (from positive control). Significance of agonist/antagonist activity was determined based upon prespecified criteria provided by Eurofins DiscoverX. In brief, receptor activity >30% was considered a significant agonist effect. Receptor inhibition >50% was considered a significant inhibitory effect. Please refer to the Supplementary File for more detail.
(§3) Samples were added to cells and incubated for 90 or 180 minutes at 37 °C or room temperature, depending on the specific receptor, as noted, with specific incubation protocols outlined in Supplemental Table 1. For antagonist activity, preincubation temperatures were performed at the temperatures specified in Supplemental Table 1, per target. Incubation with 6× EC80 agonist was determined by the assay manufacturer and selected in order to provide a challenge that was low enough to be below the saturation point, so as to not bias the results, while still at a high enough challenge concentration to yield a robust signal-to-noise ratio. Further information is available from Eurofins Discovery Services upon request.

5-HT1B [1] = biological target: T2, 5-HT1B (Homo sapiens, UniProt P28222); experiment: as above; format: cell-based; conditions: 10 μM; >30% activity = agonist
T2 construct: host or cells: Chem-1 cells
Procedure: as §1, §2, §3

5-HT2C = biological target: T3, 5-HT2C (Homo sapiens, UniProt P28335); experiment: as above; format: cell-based; conditions: 10 μM; >30% activity = agonist
T3 construct: ProLink enzyme-donor fragment of β-galactosidase (own knowledge of the PathHunter design)
Procedure: as §1, §2, §3

5-HT5A = biological target: T4, 5-HT5A (Homo sapiens, UniProt P47898); experiment: as above; format: cell-based; conditions: 10 μM; >30% activity = agonist
T4 construct: ProLink enzyme-donor fragment of β-galactosidase (own knowledge of the PathHunter design)
Procedure: as §1, §2, §3

D2L = biological target: T5, D2L (Homo sapiens, UniProt P14416); experiment: as above; format: cell-based; conditions: 10 μM; >30% activity = agonist
T5 construct: ProLink enzyme-donor fragment of β-galactosidase (own knowledge of the PathHunter design)
Procedure: as §1, §2, §3

D2S = biological target: T6, D2S (Homo sapiens, UniProt P14416); experiment: as above; format: cell-based; conditions: 10 μM; >30% activity = agonist
T6 construct: ProLink enzyme-donor fragment of β-galactosidase (own knowledge of the PathHunter design)
Procedure: as §1, §2, §3

D5 [2] = biological target: T7, D5 (Homo sapiens, UniProt P21918); experiment: as above; format: cell-based; conditions: 10 μM; >30% activity = agonist
T7 construct: ProLink enzyme-donor fragment of β-galactosidase (own knowledge of the PathHunter design)
Procedure: as §1, §2, §3

5-HT1F = biological target: T8, 5-HT1F (Homo sapiens, UniProt P30939); experiment: gpcrMAX PathHunter β-arrestin recruitment, antagonist mode; format: cell-based
T8 construct: ProLink enzyme-donor fragment of β-galactosidase (own knowledge of the PathHunter design)
T8 sequence (P30939 1-366): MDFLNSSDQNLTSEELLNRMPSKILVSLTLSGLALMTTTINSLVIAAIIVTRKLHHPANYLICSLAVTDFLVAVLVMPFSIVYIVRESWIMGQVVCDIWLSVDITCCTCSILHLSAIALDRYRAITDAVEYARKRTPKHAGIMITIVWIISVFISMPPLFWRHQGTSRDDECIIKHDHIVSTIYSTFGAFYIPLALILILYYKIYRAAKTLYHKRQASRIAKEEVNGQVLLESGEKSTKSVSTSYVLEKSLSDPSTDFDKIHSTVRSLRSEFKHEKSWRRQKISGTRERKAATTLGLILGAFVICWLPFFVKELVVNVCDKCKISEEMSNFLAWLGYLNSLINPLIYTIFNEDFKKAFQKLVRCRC
Procedure: as §1, §2, §3

AMY2 (CTR-RAMP2) = biological target: T9, AMY2 (CTR-RAMP2) (Homo sapiens, UniProt O60895+P30988); experiment: as above; format: cell-based
T9 construct: ProLink enzyme-donor fragment of β-galactosidase (own knowledge of the PathHunter design)
Procedure: as §1, §2, §3

D1 = biological target: T10, D1 (Homo sapiens, UniProt P21728); experiment: as above; format: cell-based
T10 construct: ProLink enzyme-donor fragment of β-galactosidase (own knowledge of the PathHunter design)
Procedure: as §1, §2, §3

D3 = biological target: T11, D3 (Homo sapiens, UniProt P35462); experiment: as above; format: cell-based
T11 construct: ProLink enzyme-donor fragment of β-galactosidase (own knowledge of the PathHunter design)
Procedure: as §1, §2, §3

D4 = biological target: T12, D4 (Homo sapiens, UniProt P21917); experiment: as above; format: cell-based
T12 construct: ProLink enzyme-donor fragment of β-galactosidase (own knowledge of the PathHunter design)
Procedure: as §1, §2, §3

D5 [3] = biological target: T7, D5; experiment: as above; format: cell-based
Procedure: as §1, §2, §3

α-adrenergic1B = biological target: T13, α-adrenergic1B (Homo sapiens, UniProt P35368); experiment: as above; format: cell-based
T13 construct: ProLink enzyme-donor fragment of β-galactosidase (own knowledge of the PathHunter design)
Procedure: as §1, §2, §3

α-adrenergic2A = biological target: T14, α-adrenergic2A (Homo sapiens, UniProt P08913); experiment: as above; format: cell-based
T14 construct: ProLink enzyme-donor fragment of β-galactosidase (own knowledge of the PathHunter design)
Procedure: as §1, §2, §3

α-adrenergic2C = biological target: T15, α-adrenergic2C (Homo sapiens, UniProt P18825); experiment: as above; format: cell-based
T15 construct: ProLink enzyme-donor fragment of β-galactosidase (own knowledge of the PathHunter design)
Procedure: as §1, §2, §3

5-HT1B [4] = biological target: T2, 5-HT1B; experiment: Radioligand competition binding, [3H]GR125743, Chem-1 cells
Procedure: All assays were performed in duplicate (ie, 2 replicates per assay, per standard manufacturer protocol).

[5] = 10 μM, >50% inhibition = antagonist
[6] = agonist control Dopamine at EC80
[7] = agonist control UK 14,304 at EC80

T7 sequence (P21918 whole entry, the tested form may be a part): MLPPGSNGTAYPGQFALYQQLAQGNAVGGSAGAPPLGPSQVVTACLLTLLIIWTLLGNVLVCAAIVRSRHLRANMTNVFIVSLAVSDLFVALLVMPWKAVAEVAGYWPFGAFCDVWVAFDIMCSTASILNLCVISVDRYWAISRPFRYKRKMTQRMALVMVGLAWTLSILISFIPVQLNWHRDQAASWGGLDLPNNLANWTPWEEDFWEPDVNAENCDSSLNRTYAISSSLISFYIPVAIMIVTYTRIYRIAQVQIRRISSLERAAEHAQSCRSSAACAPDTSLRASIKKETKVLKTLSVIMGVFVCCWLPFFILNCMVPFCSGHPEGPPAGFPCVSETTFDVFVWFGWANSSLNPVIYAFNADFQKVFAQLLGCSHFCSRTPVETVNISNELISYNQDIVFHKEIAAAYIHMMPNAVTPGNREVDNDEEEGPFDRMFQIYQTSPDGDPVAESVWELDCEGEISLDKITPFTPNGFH
T14 sequence (P08913 whole entry, the tested form may be a part): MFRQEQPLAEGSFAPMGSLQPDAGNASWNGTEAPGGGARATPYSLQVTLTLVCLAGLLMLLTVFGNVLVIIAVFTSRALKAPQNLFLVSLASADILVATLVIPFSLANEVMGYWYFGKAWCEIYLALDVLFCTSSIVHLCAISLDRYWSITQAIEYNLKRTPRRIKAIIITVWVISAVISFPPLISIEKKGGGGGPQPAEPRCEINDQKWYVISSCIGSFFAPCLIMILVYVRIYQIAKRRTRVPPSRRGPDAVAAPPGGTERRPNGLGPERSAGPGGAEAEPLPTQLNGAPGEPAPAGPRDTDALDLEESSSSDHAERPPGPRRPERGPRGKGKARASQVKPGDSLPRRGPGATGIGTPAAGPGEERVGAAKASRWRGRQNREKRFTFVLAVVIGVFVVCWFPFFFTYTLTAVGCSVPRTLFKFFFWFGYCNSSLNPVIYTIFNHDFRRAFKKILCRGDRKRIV
T12 sequence (P21917 whole entry, the tested form may be a part): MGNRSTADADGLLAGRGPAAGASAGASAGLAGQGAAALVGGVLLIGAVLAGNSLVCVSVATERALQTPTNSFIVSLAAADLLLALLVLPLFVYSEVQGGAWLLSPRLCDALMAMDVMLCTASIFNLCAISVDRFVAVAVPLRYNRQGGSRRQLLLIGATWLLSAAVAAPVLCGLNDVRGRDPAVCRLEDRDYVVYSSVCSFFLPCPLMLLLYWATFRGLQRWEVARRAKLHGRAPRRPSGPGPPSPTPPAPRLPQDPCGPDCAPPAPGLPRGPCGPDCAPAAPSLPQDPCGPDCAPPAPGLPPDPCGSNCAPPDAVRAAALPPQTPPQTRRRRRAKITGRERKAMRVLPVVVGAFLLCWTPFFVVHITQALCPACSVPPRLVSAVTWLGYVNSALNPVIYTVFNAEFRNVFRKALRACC
T11 sequence (P35462 whole entry, the tested form may be a part): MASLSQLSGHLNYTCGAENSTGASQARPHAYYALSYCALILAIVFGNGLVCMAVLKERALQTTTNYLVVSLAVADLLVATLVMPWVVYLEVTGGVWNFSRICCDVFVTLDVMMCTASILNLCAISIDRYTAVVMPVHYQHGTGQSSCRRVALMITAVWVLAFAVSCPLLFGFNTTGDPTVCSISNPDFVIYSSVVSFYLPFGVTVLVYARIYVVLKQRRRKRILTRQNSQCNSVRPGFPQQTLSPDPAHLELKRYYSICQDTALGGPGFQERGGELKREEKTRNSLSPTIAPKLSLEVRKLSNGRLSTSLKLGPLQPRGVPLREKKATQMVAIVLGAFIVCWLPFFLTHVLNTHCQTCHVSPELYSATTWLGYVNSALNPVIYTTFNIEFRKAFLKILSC
T13 sequence (P35368 whole entry, the tested form may be a part): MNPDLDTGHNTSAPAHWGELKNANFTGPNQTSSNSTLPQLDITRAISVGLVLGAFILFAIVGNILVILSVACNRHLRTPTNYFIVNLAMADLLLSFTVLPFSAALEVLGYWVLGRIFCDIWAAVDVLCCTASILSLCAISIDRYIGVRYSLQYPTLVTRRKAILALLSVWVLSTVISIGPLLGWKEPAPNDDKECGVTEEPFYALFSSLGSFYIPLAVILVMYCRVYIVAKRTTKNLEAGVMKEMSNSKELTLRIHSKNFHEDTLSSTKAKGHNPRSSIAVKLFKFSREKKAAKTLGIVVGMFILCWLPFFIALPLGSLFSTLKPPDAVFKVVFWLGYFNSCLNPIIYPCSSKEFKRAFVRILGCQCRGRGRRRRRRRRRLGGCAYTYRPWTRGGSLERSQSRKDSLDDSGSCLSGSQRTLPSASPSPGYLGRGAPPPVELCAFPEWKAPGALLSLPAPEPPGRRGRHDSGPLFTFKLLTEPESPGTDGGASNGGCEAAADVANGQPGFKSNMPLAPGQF
T10 sequence (P21728 whole entry, the tested form may be a part): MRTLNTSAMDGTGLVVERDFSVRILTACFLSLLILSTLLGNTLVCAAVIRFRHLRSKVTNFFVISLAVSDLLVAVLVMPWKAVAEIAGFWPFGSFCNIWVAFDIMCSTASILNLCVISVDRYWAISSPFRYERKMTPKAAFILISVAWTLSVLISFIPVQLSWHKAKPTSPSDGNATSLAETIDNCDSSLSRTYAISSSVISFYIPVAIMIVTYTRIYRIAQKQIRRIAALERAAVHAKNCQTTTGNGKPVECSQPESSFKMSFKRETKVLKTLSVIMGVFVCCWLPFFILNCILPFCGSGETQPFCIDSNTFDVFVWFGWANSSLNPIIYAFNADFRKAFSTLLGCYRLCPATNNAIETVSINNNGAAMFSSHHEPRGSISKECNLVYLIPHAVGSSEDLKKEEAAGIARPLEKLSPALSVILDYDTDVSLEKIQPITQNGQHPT
T2 sequence (P28222 whole entry): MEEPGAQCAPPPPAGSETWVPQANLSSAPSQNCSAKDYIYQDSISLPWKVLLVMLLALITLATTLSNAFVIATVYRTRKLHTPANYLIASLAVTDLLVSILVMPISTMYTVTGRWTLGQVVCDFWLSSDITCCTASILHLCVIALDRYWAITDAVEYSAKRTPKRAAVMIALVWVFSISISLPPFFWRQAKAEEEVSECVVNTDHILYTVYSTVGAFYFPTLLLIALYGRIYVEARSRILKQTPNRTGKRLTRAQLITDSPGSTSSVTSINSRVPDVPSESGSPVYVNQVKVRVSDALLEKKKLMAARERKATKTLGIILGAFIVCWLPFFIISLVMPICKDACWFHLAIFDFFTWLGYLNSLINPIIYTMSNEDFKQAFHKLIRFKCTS
T15 sequence (P18825 whole entry, the tested form may be a part): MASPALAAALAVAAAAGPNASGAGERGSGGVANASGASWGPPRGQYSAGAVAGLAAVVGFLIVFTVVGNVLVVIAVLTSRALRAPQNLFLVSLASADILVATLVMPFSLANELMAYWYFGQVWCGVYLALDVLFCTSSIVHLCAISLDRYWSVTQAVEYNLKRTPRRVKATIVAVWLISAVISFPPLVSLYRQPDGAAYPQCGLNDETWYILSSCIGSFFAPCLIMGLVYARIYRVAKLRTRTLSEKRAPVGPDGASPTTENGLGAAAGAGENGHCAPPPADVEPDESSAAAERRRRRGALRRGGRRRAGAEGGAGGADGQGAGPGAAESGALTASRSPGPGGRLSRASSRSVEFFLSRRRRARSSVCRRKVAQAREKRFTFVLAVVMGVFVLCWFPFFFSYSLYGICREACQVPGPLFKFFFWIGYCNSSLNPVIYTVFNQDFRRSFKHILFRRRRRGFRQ
T9 sequence (P30988 25-474): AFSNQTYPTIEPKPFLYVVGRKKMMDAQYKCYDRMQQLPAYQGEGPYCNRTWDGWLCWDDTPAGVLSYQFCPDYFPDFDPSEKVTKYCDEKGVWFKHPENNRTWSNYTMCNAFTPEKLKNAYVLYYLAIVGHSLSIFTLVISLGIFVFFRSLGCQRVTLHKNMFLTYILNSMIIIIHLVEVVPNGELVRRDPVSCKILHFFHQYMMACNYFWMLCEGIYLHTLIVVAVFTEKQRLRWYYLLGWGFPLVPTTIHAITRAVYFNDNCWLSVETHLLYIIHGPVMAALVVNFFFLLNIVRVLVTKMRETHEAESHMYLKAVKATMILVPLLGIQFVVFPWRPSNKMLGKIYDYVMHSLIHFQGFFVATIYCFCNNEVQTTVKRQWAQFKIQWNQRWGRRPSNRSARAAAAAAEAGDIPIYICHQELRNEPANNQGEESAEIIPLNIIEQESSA
T9 sequence (O60895 43-175 partner): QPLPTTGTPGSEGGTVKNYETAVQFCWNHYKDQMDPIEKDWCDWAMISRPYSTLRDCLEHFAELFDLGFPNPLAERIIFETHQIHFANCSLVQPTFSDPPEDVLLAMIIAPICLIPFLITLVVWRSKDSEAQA
T1 sequence (P08908 whole entry, the tested form may be a part): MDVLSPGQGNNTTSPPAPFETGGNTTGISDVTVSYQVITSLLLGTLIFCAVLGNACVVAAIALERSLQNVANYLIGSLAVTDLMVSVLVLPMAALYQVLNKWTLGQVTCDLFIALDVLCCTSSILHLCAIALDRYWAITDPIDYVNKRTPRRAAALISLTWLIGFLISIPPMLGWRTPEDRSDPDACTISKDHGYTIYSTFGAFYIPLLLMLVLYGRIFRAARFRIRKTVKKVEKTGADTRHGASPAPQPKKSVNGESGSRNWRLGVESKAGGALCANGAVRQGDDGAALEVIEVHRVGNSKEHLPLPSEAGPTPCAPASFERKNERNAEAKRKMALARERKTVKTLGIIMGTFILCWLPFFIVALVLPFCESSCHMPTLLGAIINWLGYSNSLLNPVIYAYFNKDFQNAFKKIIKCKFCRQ
T4 sequence (P47898 whole entry, the tested form may be a part): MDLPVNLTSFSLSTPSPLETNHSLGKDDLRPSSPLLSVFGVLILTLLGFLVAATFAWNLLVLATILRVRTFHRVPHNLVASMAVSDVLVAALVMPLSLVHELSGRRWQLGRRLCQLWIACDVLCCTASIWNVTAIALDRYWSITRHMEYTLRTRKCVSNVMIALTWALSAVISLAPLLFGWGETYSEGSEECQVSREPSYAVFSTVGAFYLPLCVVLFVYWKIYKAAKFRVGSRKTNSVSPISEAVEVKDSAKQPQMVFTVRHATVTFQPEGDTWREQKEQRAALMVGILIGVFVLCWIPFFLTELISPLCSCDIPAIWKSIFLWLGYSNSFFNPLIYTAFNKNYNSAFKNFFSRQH

## CN1C[C@H](C(=O)N[C@]2(C)O[C@@]3(O)[C@@H]4CCCN4C(=O)[C@H](Cc4ccccc4)N3C2=O)C[C@@H]2c3cccc4[nH]cc(c34)C[C@H]21 [DHE, Dihydroergotamine mesylate]
5-HT1A
  DHE activity (screening): Agonist
5-HT1B [1]
  DHE activity (screening): Agonist
5-HT2C
  DHE activity (screening): Agonist
5-HT5A
  DHE activity (screening): Agonist
D2L
  DHE activity (screening): Agonist
D2S
  DHE activity (screening): Agonist
D5 [2]
  DHE activity (screening): Agonist
5-HT1F
  IC50: 149 nM
5-HT1F; [5]
  DHE activity (screening): Antagonist
5-HT1F; 10 μM, agonist control Serotonin at EC80
  inhibition at 10 µM: 92%
AMY2 (CTR-RAMP2)
  inhibition at 10 µM: 57%
AMY2 (CTR-RAMP2); [5]
  DHE activity (screening): Antagonist
D1; [5]
  DHE activity (screening): Antagonist
D1; [6]
  inhibition at 10 µM: 71%
D3; [5]
  DHE activity (screening): Antagonist
D3; [6]
  inhibition at 10 µM: 91%
D4; [5]
  DHE activity (screening): Antagonist
D4; [6]
  inhibition at 10 µM: 83%
D5 [3]; [5]
  DHE activity (screening): Antagonist
D5 [3]; [6]
  inhibition at 10 µM: 54%
α-adrenergic1B; [5]
  DHE activity (screening): Antagonist
α-adrenergic1B; agonist control Phenylephrine at EC80
  inhibition at 10 µM: 95%
α-adrenergic2A; [5]
  DHE activity (screening): Antagonist
α-adrenergic2A; [7]
  inhibition at 10 µM: 115%
α-adrenergic2C; [5]
  DHE activity (screening): Antagonist
α-adrenergic2C; [7]
  inhibition at 10 µM: 124%
5-HT1B [4]
  IC50: 0.58 nM
